Laboratory results published in patent publication US8871934B2, “Fluorene compound and pharmaceutical use thereof” (Japan Tobacco Inc., priority 2008, dated 2014).
Read-outs that look alike come from different tables or passages of the source.

Molecular target: human PDHK2 (hPDHK2) (Homo sapiens (Human), UniProt Q15119)
Assay: Inhibitory action of PDHK activity in vitro (kinase reaction, residual PDH activity measured)
Type: biochemical
[1] = PDHK inhibitory activity, class symbol of IC50
[2] = read-out: PDHK inhibitory activity IC50

SMILES | IC50 [1] [nM] | IC50 [2] [nM]
NC(=O)COc1ccc2c(c1)C(O)(C(F)(F)F)c1ccccc1-2 (centres unmarked) [compound 288] | 100 to 1000 | 635
CNC(=O)COc1ccc2c(c1)C(O)(C(F)(F)F)c1ccccc1-2 (centres unmarked) [compound 289] | 100 to 1000 | 641
CN(C)C(=O)COc1ccc2c(c1)C(O)(C(F)(F)F)c1ccccc1-2 (centres unmarked) [compound 290] | 100 to 1000 | 793
O=C(O)CCOc1ccc2c(c1)C(O)(C(F)(F)F)c1ccccc1-2 (centres unmarked) [compound 291] | > 1000 | 5830
OCCOc1ccc2c(c1)C(O)(C(F)(F)F)c1ccccc1-2 (centres unmarked) [compound 292] | > 1000 | 2570
CC1CCCN1c1ccc2c(c1)C(O)(C(F)(F)F)c1ccccc1-2 (centres unmarked) [compound 293] | > 1000 | 4950
CCCCCCOc1ccc2c(c1)C(O)(C(F)(F)F)c1ccccc1-2 (centres unmarked) [compound 294] | 100 to 1000 | 710
O=C(O)CCCCOc1ccc2c(c1)C(O)(C(F)(F)F)c1ccccc1-2 (centres unmarked) [compound 295] | 100 to 1000 | 861
OCCCCCOc1ccc2c(c1)C(O)(C(F)(F)F)c1ccccc1-2 (centres unmarked) [compound 296] | 100 to 1000 | 180
CN(CCO)C(=O)c1ccc2c(c1)C(O)(C(F)(F)F)c1ccccc1-2 (centres unmarked) [compound 297] | > 1000 | 3030
OCCCCCCOc1ccc2c(c1)C(O)(C(F)(F)F)c1ccccc1-2 (centres unmarked) [compound 298] | 100 to 1000 | 177
CN(C)C(=O)CCCCOc1ccc2c(c1)C(O)(C(F)(F)F)c1ccccc1-2 (centres unmarked) [compound 299] | 100 to 1000 | 235
OC1(C(F)(F)F)c2ccccc2-c2c(-c3cncnc3)cccc21 (centres unmarked) [compound 300] | 100 to 1000 | 114
NC(=O)CCOc1ccc2c(c1)C(O)(C(F)(F)F)c1ccccc1-2 (centres unmarked) [compound 301] | > 1000 | 1590
CNC(=O)CCOc1ccc2c(c1)C(O)(C(F)(F)F)c1ccccc1-2 (centres unmarked) [compound 302] | > 1000 | 1170
CN(C)C(=O)CCOc1ccc2c(c1)C(O)(C(F)(F)F)c1ccccc1-2 (centres unmarked) [compound 303] | 100 to 1000 | 755
COC(=O)C1CCN1C(=O)c1ccc2c(c1)C(O)(C(F)(F)F)c1ccccc1-2 (centres unmarked) [compound 304] | 100 to 1000 | 723
CNC(=O)CCCCOc1ccc2c(c1)C(O)(C(F)(F)F)c1ccccc1-2 (centres unmarked) [compound 305] | 100 to 1000 | 562
NC(=O)CCCCOc1ccc2c(c1)C(O)(C(F)(F)F)c1ccccc1-2 (centres unmarked) [compound 306] | 100 to 1000 | 453

SMILES | IC50 [1] [nM] | IC50 [2] [nM]
CCCN(C)C(=O)c1ccc2c(c1)C(O)(C(F)(F)F)c1ccccc1-2 (centres unmarked) [compound 307] | > 1000 | 3200
CCCCN(C)C(=O)c1ccc2c(c1)C(O)(C(F)(F)F)c1ccccc1-2 (centres unmarked) [compound 308] | > 1000 | 2670
OC1(C(F)(F)F)c2ccccc2-c2c(-c3ccsc3)cccc21 (centres unmarked) [compound 309] | > 1000 | > 10000
O=C(NCCO)c1ccc2c(c1)C(O)(C(F)(F)F)c1ccccc1-2 (centres unmarked) [compound 310] | > 1000 | > 10000
O=C(NCCCO)c1ccc2c(c1)C(O)(C(F)(F)F)c1ccccc1-2 (centres unmarked) [compound 311] | > 1000 | 7150
O=C(NCCCCO)c1ccc2c(c1)C(O)(C(F)(F)F)c1ccccc1-2 (centres unmarked) [compound 312] | > 1000 | 1820
Cc1n[nH]c(-c2cccc3c2-c2ccccc2C3(O)C(F)(F)F)n1 (centres unmarked) [compound 313] | > 1000 | > 10000
O=C(O)C1CCN1C(=O)c1ccc2c(c1)C(O)(C(F)(F)F)c1ccccc1-2 (centres unmarked) [compound 314] | > 1000 | > 10000
CCNC(=O)c1ccc2c(c1)C(O)(C(F)(F)F)c1ccccc1-2 (centres unmarked) [compound 315] | > 1000 | 6370
CCCNC(=O)c1ccc2c(c1)C(O)(C(F)(F)F)c1ccccc1-2 (centres unmarked) [compound 316] | > 1000 | 4480
OC1(C(F)(F)F)c2ccccc2-c2ccc(Cc3ccccc3)cc21 (centres unmarked) [compound 317] | > 1000 | 2310
O=C(O)CCCCCOc1ccc2c(c1)C(O)(C(F)(F)F)c1ccccc1-2 (centres unmarked) [compound 318] | 100 to 1000 | 553
CN(CCCCO)C(=O)c1ccc2c(c1)C(O)(C(F)(F)F)c1ccccc1-2 (centres unmarked) [compound 319] | > 1000 | 3090
NCCOc1ccc2c(c1)C(O)(C(F)(F)F)c1ccccc1-2 (centres unmarked) [compound 320] | > 1000 | 8760
CNCCOc1ccc2c(c1)C(O)(C(F)(F)F)c1ccccc1-2 (centres unmarked) [compound 321] | > 1000 | 5380
CN(C)CCOc1ccc2c(c1)C(O)(C(F)(F)F)c1ccccc1-2 (centres unmarked) [compound 322] | > 1000 | 2500
CC(C)(C)OC(=O)NCCOc1ccc2c(c1)C(O)(C(F)(F)F)c1ccccc1-2 (centres unmarked) [compound 323] | 100 to 1000 | 362
CN(CCOc1ccc2c(c1)C(O)(C(F)(F)F)c1ccccc1-2)C(=O)OC(C)(C)C (centres unmarked) [compound 324] | 100 to 1000 | 203
